Usually IC50 stands for the midpoint of a concentration-inhibition curve.

We go through one substance from article PMC9573294, “AVA-NP-695 Selectively Inhibits ENPP1 to Activate STING Pathway and Abrogate Tumor Metastasis in 4T1 Breast Cancer Syngeneic Mouse Model” (Molecules, 2022).

In this test the target is T1, Ectonucleotide pyrophosphatase/phosphodiesterase 1 (ENPP1) (Homo sapiens, UniProt P22413).
T1 construct: Human recombinant ENPP1 (rENPP1)
T1 sequence (P22413 98-925 limits assumed): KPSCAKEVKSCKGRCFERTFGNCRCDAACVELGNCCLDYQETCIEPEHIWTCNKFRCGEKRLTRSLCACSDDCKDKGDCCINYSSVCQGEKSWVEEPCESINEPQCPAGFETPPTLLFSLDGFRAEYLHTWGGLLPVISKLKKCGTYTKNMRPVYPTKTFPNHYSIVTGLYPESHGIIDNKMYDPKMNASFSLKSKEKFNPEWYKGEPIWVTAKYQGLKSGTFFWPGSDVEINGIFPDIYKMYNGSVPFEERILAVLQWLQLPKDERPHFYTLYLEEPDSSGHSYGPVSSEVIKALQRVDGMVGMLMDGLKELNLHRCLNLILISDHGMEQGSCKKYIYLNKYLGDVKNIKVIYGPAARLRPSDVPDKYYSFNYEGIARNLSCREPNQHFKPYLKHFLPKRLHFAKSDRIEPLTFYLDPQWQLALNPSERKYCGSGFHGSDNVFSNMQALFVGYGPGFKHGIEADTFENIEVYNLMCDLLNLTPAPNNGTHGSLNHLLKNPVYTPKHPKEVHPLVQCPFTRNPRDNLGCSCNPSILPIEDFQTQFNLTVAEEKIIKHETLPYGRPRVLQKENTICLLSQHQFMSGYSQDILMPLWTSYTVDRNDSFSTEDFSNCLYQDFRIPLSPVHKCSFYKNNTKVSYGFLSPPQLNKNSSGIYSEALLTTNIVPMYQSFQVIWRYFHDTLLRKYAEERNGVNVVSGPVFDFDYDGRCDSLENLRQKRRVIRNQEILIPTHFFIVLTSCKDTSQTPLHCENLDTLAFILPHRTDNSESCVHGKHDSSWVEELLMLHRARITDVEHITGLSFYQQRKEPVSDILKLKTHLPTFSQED
The test can be described thus: enzymatic assay with p-Nph-5'-TMP substrate (Ki […] with […]'[…]'-cGAMP and […] with p-NPh-5'-TMP also printed). The class given is biochemical.

Consider AVA-NP-695, for which the midpoint of inhibition, the IC50, lay at 0.014 ± 0.002 µM.
